Experimental data: PMC3826719, “Impact of Polymorphic Variants on the Molecular Pharmacology of the Two-Agonist Conformations of the Human β1-Adrenoceptor” (PLoS ONE, 2013)
Where two headings read alike, the source gives them in different places.

Columns and labels:
[1] = molecular target: T1, human β1-adrenoceptor polymorphic variant Ser49/Arg389 (Homo sapiens, UniProt P08588, G389R); assay: 3H-cAMP accumulation, Ser49/Arg389; format: cell-based; design: expressed in transfected cells; pcDNA3.1); conditions: for Emax: read-out: % isop (% isoprenaline maximal response); for Log EC50 Site 2 / EC50: biphasic cAMP response; for EC50: read-out: Log EC50 Site 1 (converted)
T1 sequence (P08588 whole entry G389R): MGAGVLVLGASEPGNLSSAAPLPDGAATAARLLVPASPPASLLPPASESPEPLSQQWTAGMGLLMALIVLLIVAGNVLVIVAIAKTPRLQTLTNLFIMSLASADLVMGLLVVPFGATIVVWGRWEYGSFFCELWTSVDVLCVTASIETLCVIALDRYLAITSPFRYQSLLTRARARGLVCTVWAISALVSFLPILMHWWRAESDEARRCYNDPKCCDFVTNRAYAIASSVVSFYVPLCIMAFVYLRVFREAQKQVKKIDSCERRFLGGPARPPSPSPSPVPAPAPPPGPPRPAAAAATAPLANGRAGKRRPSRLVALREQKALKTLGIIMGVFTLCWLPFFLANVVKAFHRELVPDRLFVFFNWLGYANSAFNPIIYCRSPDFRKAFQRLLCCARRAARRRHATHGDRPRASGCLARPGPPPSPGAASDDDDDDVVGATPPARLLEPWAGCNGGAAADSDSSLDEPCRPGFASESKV
Description: (§1) Cells were grown to confluence in clear plastic tissue culture treated 24-well plates and ^3H-cAMP accumulation performed as previously described. Briefly, cells pre-labelled with ^3H-adenine by incubation for 2 hours with 2 µCi/ml ^3H-adenine in serum-free media (0.5 ml per well). The cells were washed, then 1 ml serum-free media containing 1 mM IBMX (3-isobutyl-1-methylxanthine) was added to each well and the cells incubated for 15 minutes. Agonists (in 10 µl serum-free media) were added to each well and the plates incubated for 5 hours in order to maximise the responses. The assay was terminated by adding 50 µl concentrated HCl per well, the plates frozen, thawed and ^3H-cAMP separated from other ^3H-nucleotides by sequential Dowex and alumina column chromatography. […] Where pertussis toxin (PTX) was used, cells were incubated in the 24 well plates with PTX at 100 ng/ml for 24 hours before experimentation.
(§2) The affinities of antagonists (KD values, Table 3) were calculated from the shift of the agonist concentration response curve in the presence of a fixed concentration of antagonist using equation 5: [drawing 5] (5) where DR (dose ratio) is the ratio of the agonist concentration required to stimulate an identical response in the presence and absence of a fixed concentration of antagonist [B].

[2] = molecular target: T2, human β1-adrenoceptor polymorphic variant Gly49/Gly389 (Homo sapiens, UniProt P08588, S49G); assay: 3H-cAMP accumulation, Gly49/Gly389; format: cell-based; design: expressed in transfected cells; pcDNA3.1); conditions: for Emax: read-out: % isop (% isoprenaline maximal response); for EC50 / Log EC50 Site 2: biphasic cAMP response; for EC50: read-out: Log EC50 Site 1 (converted)
T2 sequence (P08588 whole entry S49G): as the sequence (P08588 whole entry G389R) above, with S49G, R389G counted along it
Description: as §1, §2

[3] = molecular target: T3, human wildtype β1-adrenoceptor (Ser49/Gly389) (Homo sapiens, UniProt P08588); assay: 3H-cAMP accumulation, wildtype; format: cell-based; design: expressed in transfected cells; conditions: for Emax: read-out: % isop (% isoprenaline maximal response); for Log EC50 Site 2 / EC50: biphasic cAMP response; for EC50: read-out: Log EC50 Site 1 (converted)
T3 sequence (P08588 whole entry): as the sequence (P08588 whole entry G389R) above, with R389G counted along it
Description: as §1, §2

[4] = molecular target: T4, human adenosine A1 receptor (Homo sapiens, UniProt P30542); assay: 3H-cAMP accumulation in CHO-A1 cells, pertussis toxin control; format: cell-based; conditions: 100 ng/ml for 24 hours, CHO cells expressing the human adenosine A1 receptor
T4 construct: expressed in transfected cells
T4 sequence (P30542 1-326): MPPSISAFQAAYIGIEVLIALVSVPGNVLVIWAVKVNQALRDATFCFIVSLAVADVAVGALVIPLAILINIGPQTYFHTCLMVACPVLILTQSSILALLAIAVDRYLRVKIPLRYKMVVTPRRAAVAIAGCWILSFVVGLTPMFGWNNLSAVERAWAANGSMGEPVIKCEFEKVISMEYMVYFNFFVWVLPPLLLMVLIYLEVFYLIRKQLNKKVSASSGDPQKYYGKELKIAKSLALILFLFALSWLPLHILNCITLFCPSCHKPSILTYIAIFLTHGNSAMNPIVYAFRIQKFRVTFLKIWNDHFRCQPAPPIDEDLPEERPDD

[5] = molecular target: T2, human β1-adrenoceptor polymorphic variant Gly49/Gly389; assay: cell-based; conditions: Log KD
Description: (§3) The cells were washed twice with 200 µl 4°C phosphate buffered saline, 100 µl Microscint 20 was added to each well, and the plates counted on a Topcount at 21°C for 2 minutes per well.
(§4) All data points were performed in triplicate and each 96-well plate also contained 6 determinations of total and non-specific binding.

[6] = molecular target: T3, human wildtype β1-adrenoceptor (Ser49/Gly389); assay: cell-based; conditions: Log KD
Description: as §3, §4

[7] = molecular target: T1, human β1-adrenoceptor polymorphic variant Ser49/Arg389; assay: cell-based; conditions: Log KD
Description: as §3, §4

[8] = test system: endogenous P2y2 receptors; assay: 3H-inositol phosphate accumulation, positive controls; format: cell-based, Chinese Hamster; conditions: 100 µM
Description: Cells were grown to confluence in clear plastic tissue culture treated 24-well plates containing ^3H-myo-inositol (4 µCi/ml). Cells were washed then incubated for 30 minutes in 1 ml of serum free media containing 20 mM LiCl (37°C, 5% CO2). Agonists (in 10 µl) were then added and the incubation continued for 1 hour. All reagents were then removed and 1 ml of cold (−20°C) methanol/0.12M HCl (1∶1, v/v) added to each well. […] Total ^3H-inositol phosphate levels were determined by liquid scintillation counting. 100 µM ATP and 100 µM UTP was used as positive controls.

[9] = test system: ERK1/2 MAPKinase activation; assay: Alphascreen Surefire MAPKinase (pERK1/2) assay, positive control; format: cell-based, Chinese Hamster; conditions: 1 µM, 30 minutes
Description: Extracellular-signal-regulated kinases ERK1/2 activation was measured using a Surefire Alphascreen pERK1/2 kit as per manufacturer's instructions. Briefly, cells were grown to confluence in clear plastic tissue culture treated 96-well plates then serum starved by incubation in serum-free media for 24 hours before experimentation. Agonist in 20 µl was added to the well (1∶5 dilution in wells) and incubated for 5–60 minutes (37°C, 5% CO2). Reagents were then removed and 20 µl lysis buffer added to each well. Plates were frozen at −20°C overnight, thawed, and the assay then conducted as per manufacturer's instructions. After 2 hours in the dark, the plates were read on an Envision plate reader using standard Alphascreen settings. 1 µM phorbol ester was used as the positive control.

[10] = 3H-cAMP accumulation, main stable WT Ser49/Gly389 cell line (WT original), maximum defined by 10 µM isoprenaline
[11] = cells expressing Gly49/Gly389 receptor
[12] = cells expressing Ser49/Arg389 β1-receptors
[13] = cells expressing wildtype Ser49/Gly389 receptor

CC(C)NCC(O)COc1ccc(CC(N)=O)cc1 (stereo not shown) [Atenolol]
Emax ([1]; 3H-cAMP accumulation, main stable Ser49/Arg389 cell line (original), maximum defined by 10 µM isoprenaline): 1.3 ± 0.2%
Emax ([2]; 3H-cAMP accumulation, main stable Gly49/Gly389 cell line (original), maximum defined by 10 µM isoprenaline): 0%
Emax [3, 10]: 0%

pertussis toxin (PTX)
Effect of pre-incubation on Gi-coupled inhibition of 3H-cAMP accumulation in response to cyclopentyladenosine (CPA) [4]: completely inhibited
Effect of pre-incubation on the cimaterol or CGP 12177 3H-cAMP responses ([1]; 100 ng/ml for 24 hours, Ser49/Arg389 receptor): no effect
Effect of pre-incubation on the cimaterol or CGP 12177 3H-cAMP responses ([2]; 100 ng/ml for 24 hours, Gly49/Gly389 receptor): no effect
Effect of pre-incubation on the cimaterol or CGP 12177 3H-cAMP responses ([3]; 100 ng/ml for 24 hours, WT receptor): no effect

CC(C)(Cc1c[nH]c2ccccc12)NCC(O)COc1ccccc1C#N (stereo not shown) [Bucindolol]
Kd ([5]; competition with 3H-CGP 12177, Gly49/Gly389 transiently transfected populations): 1.58 nM
Kd ([5]; competition with 3H-CGP 12177, additional stable Gly49/Gly389 cell line V87): 0.427 nM
Kd ([5]; competition with 3H-CGP 12177, whole cells, main stable CHO cell line Gly49/Gly389): 0.339 nM
Kd ([6]; competition with 3H-CGP 12177, WT transiently transfected populations): 1.32 nM
Kd ([6]; competition with 3H-CGP 12177, additional stable WT cell line T3): 1.45 nM
Kd ([6]; competition with 3H-CGP 12177, additional stable WT cell line T88): 0.355 nM
Kd ([6]; competition with 3H-CGP 12177, whole cells, main stable CHO cell line WT (Ser49/Gly389)): 0.275 nM
% isoprenaline ([1]; % maximum isoprenaline response for the overall biphasic response, main Ser49/Arg389 cell line): 53.6±1.2%
% Site 1 ([1]; % of the response occurring at site 1, main Ser49/Arg389 cell line): 80.4±2.6%
% Site 1 ([1]; Ser49/Arg389 Cell line W81): 47.6 ± 3.3%
% Site 1 ([1]; Ser49/Arg389 Cell line W93): 51.5 ± 4.0%
Log EC50 Site 2 ([1]; Ser49/Arg389 Cell line W81): -6.22 ± 0.15
EC50 ([1]; Ser49/Arg389 Cell line W81): 0.724 nM
Log EC50 Site 2 ([1]; Ser49/Arg389 Cell line W93): -7.50 ± 0.07
EC50 ([1]; Ser49/Arg389 Cell line W93): 0.589 nM
Log EC50 Site 2 ([1]; main Ser49/Arg389 cell line): −6.98±0.19
EC50 ([1]; main Ser49/Arg389 cell line): 0.447 nM
% isoprenaline ([1]; overall biphasic response, Ser49/Arg389 Cell line W81): 34.8 ± 2.0%
% isoprenaline ([1]; overall biphasic response, Ser49/Arg389 Cell line W93): 32.8 ± 1.1%
% isoprenaline ([2]; % maximum isoprenaline response for the overall biphasic response, main Gly49/Gly389 cell line): 25.7±0.8%
% Site 1 ([2]; % of the response occurring at site 1, main Gly49/Gly389 cell line): 51.5±2.4%
% Site 1 ([2]; Gly49/Gly389 Cell line V6): 54.0 ± 2.7%
% Site 1 ([2]; Gly49/Gly389 Cell line V87): 69.3 ± 7.5%
EC50 ([2]; Gly49/Gly389 Cell line V6): 0.282 nM
Log EC50 Site 2 ([2]; Gly49/Gly389 Cell line V87): -7.34 ± 0.23
EC50 ([2]; Gly49/Gly389 Cell line V87): 0.309 nM
Log EC50 Site 2 ([2]; main Gly49/Gly389 cell line): −7.45±0.11
EC50 ([2]; main Gly49/Gly389 cell line): 0.417 nM
% isoprenaline ([2]; overall biphasic response, Gly49/Gly389 Cell line V6): 27.5 ± 1.0%
% isoprenaline ([2]; overall biphasic response, Gly49/Gly389 Cell line V87): 22.8 ± 1.1%
% isoprenaline ([3]; % maximum isoprenaline response for the overall biphasic response, main WT Ser49/Gly389 cell line): 24.6±4.1%
% Site 1 ([3]; % of the response occurring at site 1, main WT Ser49/Gly389 cell line): 59.8±2.8%
% Site 1 ([3]; WT cell line T3): 75.6 ± 4.5%
% Site 1 ([3]; WT cell line T88): 48.0 ± 4.2%
Log EC50 Site 2 ([3]; WT cell line T3): -7.09 ± 0.15
EC50 ([3]; WT cell line T3): 0.708 nM
Log EC50 Site 2 ([3]; WT cell line T88): -7.46 ± 0.09
EC50 ([3]; WT cell line T88): 0.234 nM
Log EC50 Site 2 ([3]; main WT Ser49/Gly389 cell line): −7.53±0.05
EC50 ([3]; main WT Ser49/Gly389 cell line): 0.347 nM
% isoprenaline ([3]; overall biphasic response, WT cell line T3): 43.4 ± 2.0%
% isoprenaline ([3]; overall biphasic response, WT cell line T88): 23.6 ± 2.4%
Kd ([7]; competition with 3H-CGP 12177, Ser49/Arg389 transiently transfected populations): 1.82 nM
Kd ([7]; competition with 3H-CGP 12177, additional stable Ser49/Arg389 cell line W81): 0.275 nM
Kd ([7]; competition with 3H-CGP 12177, additional stable Ser49/Arg389 cell line W93): 0.646 nM
Kd ([7]; competition with 3H-CGP 12177, whole cells, main stable CHO cell line Ser49/Arg389): 0.347 nM

CNC[C@H](O)c1ccc(O)c(O)c1 [Adrenaline]
Emax [1]: 91.6 ± 2.2%
Emax [2]: 95.9 ± 3.2%
% isop (% isoprenaline maximal response) [3, 10]: full agonists
Emax [3]: 96.4 ± 2.1%

O=c1ccn([C@@H]2O[C@H](COP(=O)(O)OP(=O)(O)OP(=O)(O)O)[C@@H](O)[C@H]2O)c(=O)[nH]1 [UTP]
3H-inositol phosphate accumulation response [8, 11]: 2.32±0.29 fold over basal
3H-inositol phosphate accumulation response [8, 12]: 2.63±0.40 fold over basal
3H-inositol phosphate accumulation response [8, 13]: 1.87±0.11 fold over basal

CCCCCCCCCCCCCC(=O)O[C@@H]1[C@@H](C)[C@@]2(O)[C@@H](C=C(CO)C[C@]3(O)C(=O)C(C)=C[C@@H]23)[C@@H]2C(C)(C)[C@]12OC(C)=O [phorbol ester]
MAPKinase maximum stimulation ([9]; Gly49/Gly389 receptor cells): 12.6±3.8 fold over basal
MAPKinase maximum stimulation ([9]; Ser49/Arg389 receptor cells): 7.4±1.4 fold over basal
MAPKinase maximum stimulation ([9]; wildtype receptor cells): 11.9±1.6 fold over basal

Nc1ncnc2c1ncn2[C@@H]1O[C@H](COP(=O)(O)OP(=O)(O)OP(=O)(O)O)[C@@H](O)[C@H]1O [ATP]
3H-inositol phosphate accumulation response [8, 11]: 2.77±0.40 fold over basal
3H-inositol phosphate accumulation response [8, 12]: 2.96±0.28 fold over basal
3H-inositol phosphate accumulation response [8, 13]: 2.18±0.17 fold over basal

NC[C@H](O)c1ccc(O)c(O)c1 [Noradrenaline]
Emax [1]: 96 ± 3%
Emax [2]: 99.1 ± 3.7%
% isop (% isoprenaline maximal response) [3, 10]: full agonists
Emax [3]: 95.5 ± 2%
